Measured values reported in ChEMBL document CHEMBL1909046, “DrugMatrix in vitro pharmacology data”.

How the values were obtained:
[1] = target: T1, Androgen receptor (Rattus norvegicus, UniProt P15207); further: in other assays of this panel Not Active means under 50% inhibition at 10 µM
T1 sequence (P15207 whole entry): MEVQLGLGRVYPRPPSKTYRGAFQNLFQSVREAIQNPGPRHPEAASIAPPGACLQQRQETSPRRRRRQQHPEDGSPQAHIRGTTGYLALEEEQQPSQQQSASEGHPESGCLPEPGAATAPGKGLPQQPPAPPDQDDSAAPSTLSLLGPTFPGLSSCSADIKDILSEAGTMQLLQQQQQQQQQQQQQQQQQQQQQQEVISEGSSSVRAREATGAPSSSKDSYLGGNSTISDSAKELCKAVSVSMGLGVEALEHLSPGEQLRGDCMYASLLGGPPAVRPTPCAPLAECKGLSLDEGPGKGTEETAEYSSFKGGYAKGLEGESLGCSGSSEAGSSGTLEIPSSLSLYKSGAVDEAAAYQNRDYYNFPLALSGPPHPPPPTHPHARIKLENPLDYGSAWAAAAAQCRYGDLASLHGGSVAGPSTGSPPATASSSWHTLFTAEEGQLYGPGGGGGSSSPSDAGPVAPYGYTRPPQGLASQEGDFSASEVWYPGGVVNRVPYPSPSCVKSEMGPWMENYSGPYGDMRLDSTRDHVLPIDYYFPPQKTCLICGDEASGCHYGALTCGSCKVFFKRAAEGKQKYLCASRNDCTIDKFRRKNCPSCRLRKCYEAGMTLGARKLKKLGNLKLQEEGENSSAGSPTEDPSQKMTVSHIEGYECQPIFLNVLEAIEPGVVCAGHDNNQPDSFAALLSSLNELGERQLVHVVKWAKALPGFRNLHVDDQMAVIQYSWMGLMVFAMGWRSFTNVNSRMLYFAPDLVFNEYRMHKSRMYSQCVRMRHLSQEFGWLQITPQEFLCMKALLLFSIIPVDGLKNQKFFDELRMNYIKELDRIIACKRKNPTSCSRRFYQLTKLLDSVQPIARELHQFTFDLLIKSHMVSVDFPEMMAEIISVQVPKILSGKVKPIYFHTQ

[2] = target: T2, Amine oxidase [flavin-containing] A (Homo sapiens, UniProt P21397); test: DRUGMATRIX: Monoamine Oxidase MAO-A enzyme inhibition (substrate: Kynuramine); design: species or system BTI-TN-5B1-4; conditions: bti-tn-5b1-4; Not Active = under 50% inhibition at 10 µM
T2 sequence (P21397 whole entry): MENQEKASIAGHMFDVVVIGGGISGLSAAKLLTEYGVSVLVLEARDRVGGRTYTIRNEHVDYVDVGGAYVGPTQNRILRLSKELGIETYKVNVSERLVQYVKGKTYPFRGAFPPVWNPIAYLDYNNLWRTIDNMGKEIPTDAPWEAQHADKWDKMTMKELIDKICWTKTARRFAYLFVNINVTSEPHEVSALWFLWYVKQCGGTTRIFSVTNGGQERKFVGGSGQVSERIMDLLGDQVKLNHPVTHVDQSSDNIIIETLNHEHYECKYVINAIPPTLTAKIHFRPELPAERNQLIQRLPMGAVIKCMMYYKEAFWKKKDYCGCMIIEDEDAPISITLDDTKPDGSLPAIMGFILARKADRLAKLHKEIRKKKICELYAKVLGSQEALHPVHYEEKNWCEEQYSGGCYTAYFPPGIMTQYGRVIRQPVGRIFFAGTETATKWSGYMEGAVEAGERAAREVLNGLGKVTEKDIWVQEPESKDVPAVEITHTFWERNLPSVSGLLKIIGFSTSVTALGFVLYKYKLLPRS

[3] = target: 5-hydroxytryptamine receptor 4 (Cavia porcellus, UniProt O70528); type: cell membranes, Dunkin-Hartley, Striatum, Membrane; further: in other assays of this panel Not Active means under 50% inhibition at 10 µM
5-hydroxytryptamine receptor 4, sequence (O70528 whole entry): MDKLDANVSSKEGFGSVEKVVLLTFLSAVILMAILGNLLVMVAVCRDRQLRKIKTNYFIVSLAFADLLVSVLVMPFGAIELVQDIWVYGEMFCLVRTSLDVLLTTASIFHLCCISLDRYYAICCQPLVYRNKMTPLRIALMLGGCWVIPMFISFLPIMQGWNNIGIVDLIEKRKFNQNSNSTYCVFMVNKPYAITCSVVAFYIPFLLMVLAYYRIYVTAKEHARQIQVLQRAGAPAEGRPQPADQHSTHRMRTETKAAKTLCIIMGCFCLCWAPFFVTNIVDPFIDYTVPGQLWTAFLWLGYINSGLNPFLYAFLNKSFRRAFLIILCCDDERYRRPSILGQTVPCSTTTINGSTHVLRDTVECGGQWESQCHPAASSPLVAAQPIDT

[4] = DRUGMATRIX: Imidazoline I2, Central radioligand binding (ligand: [3H] Idazoxan); type: cell membranes, Rattus norvegicus, Wistar, Cerebral cortex, Membrane; conditions: Not Active = under 50% inhibition at 10 µM
[5] = DRUGMATRIX: Tumor Necrosis Factor (TNF), Non-Selective radioligand binding (ligand: [125I] TNF-alpha); type: cell membranes, Membrane; conditions: u-937; Not Active = under 50% inhibition at 10 µM

Brc1ccccc1 [BROMOBENZENE]
Not Active: IC50 [1] | IC50 [2] | IC50 [3] | IC50 [4] | Ki [4] | IC50 [5] | Ki [5]

CC(C)NC[C@H](O)COc1cccc2[nH]ccc12
Not Active: IC50 [1] | IC50 [2] | IC50 [3] | IC50 [4] | Ki [4] | IC50 [5] | Ki [5]

COc1ccc2cc(CC(=O)O)ccc2c1
Not Active: IC50 [1] | IC50 [2] | IC50 [3] | IC50 [4] | Ki [4] | IC50 [5] | Ki [5]

CC[C@@]1(O)C(=O)OCc2c1cc1n(c2=O)Cc2cc3ccccc3nc2-1 [CAMPTOTHECIN]
Not Active: IC50 [1] | IC50 [2] | IC50 [3] | IC50 [4] | Ki [4] | IC50 [5] | Ki [5]

C=C1[C@@H]2CCC3[C@@](CC[C@@H]4[C@H](C(=O)O)C[C@@H](O[C@@H]5O[C@H](CO)[C@@H](OS(=O)(=O)[O-])[C@H](OS(=O)(=O)[O-])[C@H]5OC(=O)CC(C)C)C[C@@]34C)(C2)[C@@H]1O.[K+].[K+] (stereo partly specified) [ATRACTYLOSIDE]
Not Active: IC50 [1] | IC50 [2] | IC50 [3] | IC50 [4] | Ki [4] | IC50 [5] | Ki [5]

CCc1cccc2c3c([nH]c12)C(CC)(CC(=O)O)OCC3 (stereo unspecified) [ETODOLAC]
Not Active: IC50 [1] | IC50 [2] | IC50 [3] | IC50 [4] | Ki [4] | IC50 [5] | Ki [5]

CARBOPLATIN
Not Active: IC50 [1] | Ki [1] | IC50 [2] | Ki [2] | IC50 [3] | Ki [3] | IC50 [4] | Ki [4] | IC50 [5] | Ki [5]

NCC[C@H](O)C(=O)N[C@@H]1C[C@H](N)[C@@H](O[C@H]2O[C@H](CN)[C@@H](O)[C@H](O)[C@H]2O)[C@H](O)[C@H]1O[C@H]1O[C@H](CO)[C@@H](O)[C@H](N)[C@H]1O [AMIKACIN]
Not Active: IC50 [1] | IC50 [2] | IC50 [3] | IC50 [4] | Ki [4] | IC50 [5] | Ki [5]

CN(C)[C@@H]1C(O)=C(C(N)=O)C(=O)[C@@]2(O)C(O)=C3C(=O)c4c(O)cccc4[C@@](C)(O)[C@H]3[C@H](O)[C@@H]12 [OXYTETRACYCLINE]
Not Active: IC50 [1] | IC50 [2] | IC50 [3] | IC50 [4] | Ki [4] | IC50 [5] | Ki [5]

COc1ccc2c(c1)c(CC(=O)OCC(=O)O)c(C)n2C(=O)c1ccc(Cl)cc1 [ACEMETACIN]
Not Active: IC50 [1] | IC50 [2] | IC50 [3] | IC50 [4] | Ki [4] | IC50 [5] | Ki [5]

GOLD SODIUM THIOMALATE
Not Active: IC50 [1] | Ki [1] | IC50 [2] | Ki [2] | IC50 [3] | Ki [3] | IC50 [4] | Ki [4] | IC50 [5] | Ki [5]

OCc1ccccc1 [BENZYL ALCOHOL]
Not Active: IC50 [1] | IC50 [2] | IC50 [3] | IC50 [4] | Ki [4] | IC50 [5] | Ki [5]

C=C1C(=O)O[C@@H]2C3O[C@]3(C)CC/C=C(\C)CC[C@@H]12 (stereo partly specified)
Not Active: IC50 [1] | IC50 [2] | IC50 [3] | IC50 [4] | Ki [4] | IC50 [5] | Ki [5]

OXALIPLATIN
Not Active: IC50 [1] | Ki [1] | IC50 [2] | Ki [2] | IC50 [3] | Ki [3] | IC50 [4] | Ki [4] | IC50 [5] | Ki [5]

C=C(C)[C@@H]1[C@H]2OC(=O)[C@@H]1[C@]1(O)C[C@H]3O[C@]34C(=O)O[C@H]2[C@]14C [PICROTOXININ]
Not Active: IC50 [1] | IC50 [2] | IC50 [3] | IC50 [4] | Ki [4] | IC50 [5] | Ki [5]

CC1(C)S[C@@H]2[C@H](NC(=O)[C@H](N)c3ccc(O)cc3)C(=O)N2[C@H]1C(=O)O [AMOXICILLIN]
Not Active: IC50 [1] | IC50 [2] | IC50 [3] | IC50 [4] | Ki [4] | IC50 [5] | Ki [5]
